Data on 4 molecules can be found in paper PMC7587528.

For data set [1], the system named is antiTroponin I antibody [MF4]. Nature of the data set: ITEM-TWO nanoESI-MS collision induced dissociation: Troponin I peptide-antiTroponin I antibody complex (gas phase). In kind it is binding. From the text: At last, we performed ITEM-TWO experiments with an epitope peptide that was derived from human cardiac Troponin I (Tn I) against which was directed a monoclonal antiTroponin I antibody (antiTn I). Generation of the immune complex in solution and subsequent electrospraying of the entire mixture started data acquisition with the respective instrument settings as mentioned (for details see Methods section). […] Again, upon raising the collision cell voltage difference there appeared isotopically resolved ions in the low m/z range of the mass spectrum for the Troponin I epitope peptide (see insert in Figure 7) which were recorded with high mass accuracy (7 ppm).
Again, plotting norm (educts) vs. ΔCV produced a sigmoidal shaped course which represented the dependence of educt intensity on ΔCV following Boltzmann characteristics (Supplemental Figure S7). The y-axis values on the tangent line, i.e., norm (educts) , enabled to calculate ln kmg# values. […] This Arrhenius plot again provided lnA (pre-exponential factor) as the intercept with the y-axis and − ΔGmg#/R as the slope of the line (Supplemental Figure S8). In the same manner as described above, the value for km0g# was calculated. Similarly, by applying the Eyring-Polanyi equation KD m0g# was determined.
The human cardiac Troponin I epitope peptide (ENREVGDWRKNIDAL; peptides&elephants, Hennigsdorf, Germany) was obtained as lyophilized powder. The peptide was dissolved in 200 mM ammonium acetate buffer, pH 7, to obtain a peptide concentration of 1.31 µg/µL. The antiTroponin I antibody [MF4] (product code ab38210; Abcam, Cambridge, UK) was obtained dissolved in PBS buffer, pH 7.4. […] Then 200 mM ammonium acetate buffer, pH 7, were added to reach a volume of 500 µL. The solution was centrifuged at 13,000 rpm for 10 min. The filtrate was discarded. To the retentate on the filter (ca. 30 µL) 470 µL of 200 mM ammonium acetate buffer, pH 7, were added to reach a total volume of 500 µL. The solution was centrifuged again. This centrifugation/re-filling procedure was repeated eight times. After the last spinning, the filter unit was inverted into a new vial and was centrifuged at 4500 rpm for 5 min to collect the retentate (52 µL). Protein concentration was determined to be 0.33 µg/µL using the Qubit^TM 2.0 Fluorometer (Carlsbad, CA, USA) assay. […] The immune complex-containing mixture was incubated at room temperature for at least 1 h. For each measurement, 3 µL of antibody-peptide complex-containing solution were loaded into nanoESI capillaries using a microloader pipette tip (Eppendorf, Hamburg, Germany).
The m/z axis was calibrated using 1 mg/mL sodium iodide dissolved in an isopropanol/water solution (50:50, v/v). […]

Data set [2] relates to antiFLAG M2 antibody.
The test system of data set [3] is apo-myoglobin. The conditions noted are these: in solution, ref [23], cited from earlier work. From the text: In solution, the bi-molecular association of the heme group to apo-myoglobin is thought to follow a bimodal process. Association of heme to (partially unfolded) apo-myoglobin is fast (kA ~10^8 M^−^1·s^−^1), followed by a slower structural re-arrangement (k ~500 s^−^1) to generate natively-folded holo-myoglobin (at pH 7) in which the iron atom of the heme group is then primarily coordinated by His93 [23]. Accordingly, in-solution affinity of at least partially unfolded apo-myoglobin to the heme prosthetic group has been characterized as rather strong and the complex consisting of both compone ...

Data set [4] deals with holo-myoglobin (apo-myoglobin—heme complex). Nature of the data set: ITEM-TWO nanoESI-MS collision induced dissociation: heme loss from holo-myoglobin (gas phase). In kind it is binding. As for the experimental part:
The mass spectral data obtained from electrospraying myoglobin (the holo-myoglobin complex consists of apo-myoglobin plus heme) were collected by following the ITEM-TWO protocol (see Methods section for in-solution handling and data acquisition steps). The ESI mass spectrum of myoglobin (Figure 4) provides an ion series of multiply charged ions from which a mean charge state of 8.1+ and an average mass of 17,566.95 ± 0.46 Da is calculated for holo-myoglobin. After having electrosprayed the myoglobin solution, and upon having switched on the collision gas and having increased the collision cell voltage difference ( ΔCV ) in a step-wise manner (5–20 V/step), dissociation of holo-myoglobin complexes caused appearance of complex-released heme ions (ligands) in the low mass ranges of the mass spectra (Supplemental Table S1). […] The m/z value of the ion that appeared in the low mass range ([heme]+) was 616.21 and corresponded precisely to the calculated values for singly protonated [heme]+ (m/z 616.18), resulting in a mass accuracy of 48 ppm.
Mean charge states of holo-myoglobin ions (m+), apo-myoglobin (n+) and heme (p+) as well as apex heights (holo-myoglobin ions (h, educts), heme ions (i, product), and apo-myoglobin ions (j, product) were extracted (Supplemental Table S2) from the triplicate measurements, averaged and normalized. For each ΔCV setting one spectrum was generated (Figure 4) and analyzed semi-quantitatively by determining Gaussian fits for all molecular/supra-molecular ion species.
All the y-values from the tangent line of the steep decline that fall within the 2dx interval around ΔCV50 are used for the calculation of ln kmg# values which are then used in the Arrhenius plot (Supplemental Figure S2). […] Then, ΔGm0g# is calculated using the van´t Hoff equation (Table 1).
A stock solution was first prepared by dissolving 5.22 mg of myoglobin (lot # 60K7007, Sigma-Aldrich, Steinheim, Germany) in 1 mL of 200 mM ammonium acetate. […] The concentration of the resulting solution was determined to be 0.5 µg/µL using a QubitTM 2.0 Fluorometer (Carlsbad, California, USA). […]

Data set [5] has as its system holo-myoglobin. The conditions noted are these: gas phase, ref [19], cited from earlier work. From the text: In that investigation, heme dissociation kinetics was studied (i) by spraying solutions with pH 5 and (ii) by looking at selected charge state pairs (e.g., 8+ protonated holo-myoglobin and 7+ charged apo-myoglobin). Activation energies ranged from 73 kJ/mol to 106 ...

[6] abbreviates: "neutral and resting" complex, gas phase, Arrhenius extrapolation to 298 K (ΔCV = 0).

“Also recorded” adds a separate entry of the source. Where two headings read alike, the source gives them in different places.

On to “ENREVGDWRKNIDAL [troponin I, peptides&elephants)]”, for which the “km0g# apparent rate constant of dissociation” value (shortened to “km0g# apparent rate constant”) in data set [1] (setting [6]) is listed as 2.2 × 10 ^12 1/s. In addition, the “∆CV50” value in data set [1] (collision cell voltage difference at center of Boltzmann fit of normalized educt intensity, Synapt G2S, peptide to antibody 2.2:1, 200 mM ammonium acetate pH 7, two determinations) worked out at 26.4 V. The dx in data set [1] (half of x-axis interval (2dx) of steepest educt decline in Boltzmann fit, Synapt G2S, two determinations) is 15.9 V. In addition, the “binding stoichiometry, peptides bound per antibody” value in data set [1] (high mass range ion triplets, charge states 23+ to 28+, listed as Troponin I epitope peptide) is listed as “one bound Troponin I epitope peptide; also recorded: two bound Troponin I epitope peptides”.

Take DYKDDDDK [FLAG]: the “km0g# apparent rate constant” value in data set [2] (setting [6]) is given as 7.9 × 10 ^10 1/s. In addition, the “∆CV50” value in data set [2] (collision cell voltage difference at center of Boltzmann fit of normalized educt intensity, peptide to antibody 2.2:1, 200 mM ammonium acetate pH 7, three determinations) worked out at 89.0 V. The molecule also had a dx in data set [2] (half of x-axis interval (2dx) of steepest educt decline in Boltzmann fit, three determinations) of 19.8 V. Moreover, the “binding stoichiometry, peptides bound per antibody” value in data set [2] (high mass range ion triplets, charge states 21+ to 27+, mixture of seven peptides, listed as FLAG peptide) was “one bound FLAG peptide; also recorded: two bound FLAG peptides”. The “peptide released from antiFLAG antibody complex (epitope identification)” value in data set [2] (mixture of seven peptides with antiFLAG antibody, 200 mM ammonium acetate pH 7, raised collision cell voltage) is recorded as “only released the FLAG peptide”.

On to `C=CC1=C(C)c2cc3[n-]c(cc4[n-]c(cc5nc(cc1n2)C(C)=C5C=C)c(C)c4CCC(=O)O)c(CCC(=O)O)c3C.[Fe+2]` [heme], for which the “k of slower structural re-arrangement to natively-folded holo-myoglobin” value in data set [3] (pH 7) is ~ 500 s^−^1. Further, in data set [3], the “kA association of heme to (partially unfolded) apo-myoglobin” value was ~ 10^8 M^−^1·s^−^1.

B1: myoglobin: holo-myoglobin complex consists of apo-myoglobin plus heme; lot # 60K7007, Sigma-Aldrich (protein, UniProt P68082 2-154, looked up)
Myoglobin: GLSDGEWQQVLNVWGKVEADIAGHGQEVLIRLFTGHPETLEKFDKFKHLKTEAEMKASEDLKKHGTVVLTALGGILKKKGHHEAELKPLAQSHATKHKIPIKYLEFISDAIIHVLHSKHPGDFGADAQGAMTKALELFRNDIAAKYKELGFQG
modifications: heme
notes: holo-myoglobin complex consists of apo-myoglobin plus heme; lot # 60K7007, Sigma-Aldrich
B1: the “km0g# apparent rate constant” value in data set [4] (setting [6]) is 5.1 × 10 ^9 1/s. For the same molecule, in data set [4] (collision cell voltage difference at center of Boltzmann fit of normalized educt intensity, Q-TOF 2, 200 mM ammonium acetate pH 7, triplicate), the “∆CV50” value is recorded as 44.0 V. The dx in data set [4] (half of x-axis interval (2dx) of steepest educt decline in Boltzmann fit, Q-TOF 2, triplicate) worked out at 8.5 V. Further, the “activation energy for heme dissociation” value in data set [5] (9+ protonated holo-myoglobin) was 22 kcal/mol; in data set [5] (10+ protonated holo-myoglobin) it was 20.3 kcal/mol.
